Data from PubChem BioAssay (NCI).
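All cell lines were grown in 96-well plates and treated with compound for 48 hours. TGI marks complete inhibition of growth.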

Key:
Experiment in all cases: NCI anticancer screen, dose series, 48 h
[1] = system: 786-0 renal
[2] = system: A498 renal
[3] = system: A549 NSCLC
[4] = system: ACHN renal
[5] = system: BT-549 breast
[6] = system: CAKI-1 renal
[7] = system: CCRF-CEM leukemia
[8] = system: COLO 205 colon
[9] = system: DU-145 prostate
[10] = system: EKVX NSCLC
[11] = system: HCT-116 colon
[12] = system: HCT-15 colon
[13] = system: HOP-62 NSCLC
[14] = system: HOP-92 NSCLC
[15] = system: HS 578T breast
[16] = system: HT29 colon
[17] = system: IGROV1 ovarian
[18] = system: K-562 leukemia
[19] = system: KM12 colon
[20] = system: LOX IMVI melanoma
[21] = system: M14 melanoma
[22] = system: MALME-3M melanoma
[23] = system: MCF7 breast
[24] = system: MDA-MB-231 breast
[25] = system: MDA-MB-435
[26] = system: MDA-N
[27] = system: MOLT-4 leukemia
[28] = system: NCI-H226 lung
[29] = system: NCI-H23 lung
[30] = system: NCI-H522 lung
[31] = system: NCI/ADR-RES ovarian
[32] = system: OVCAR-3 ovarian
[33] = system: OVCAR-4 ovarian
[34] = system: OVCAR-5 ovarian
[35] = system: OVCAR-8 ovarian
[36] = system: PC-3 prostate
[37] = system: RPMI-8226 leukemia
[38] = system: SF-268 CNS
[39] = system: SF-295 CNS
[40] = system: SF-539 CNS
[41] = system: SK-MEL-2 melanoma
[42] = system: SK-MEL-28 melanoma
[43] = system: SK-MEL-5 melanoma
[44] = system: SK-OV-3 ovarian
[45] = system: SN12C renal
[46] = system: SNB-19 CNS
[47] = system: SNB-75 CNS
[48] = system: SW-620 colon
[49] = system: T-47D breast
[50] = system: TK-10 renal
[51] = system: U251 CNS
[52] = system: UACC-257 melanoma
[53] = system: UACC-62 melanoma
[54] = system: UO-31 renal
[55] = system: HCC-2998 colon
[56] = system: NCI-H460 lung
[57] = system: RXF 393 renal
[58] = system: SR leukemia
[59] = system: HL-60(TB) leukemia

CC(C)(C)C1=CC(O)(c2c3ccccc3c(C3(O)C=C(C(C)(C)C)C(=O)C(C(C)(C)C)=C3)c3ccccc23)C=C(C(C)(C)C)C1=O
TGI [1]: > 100 µM | TGI [2]: 0.65 µM | TGI [3]: > 100 µM | TGI [4]: > 100 µM | TGI [5]: > 100 µM | TGI [6]: > 100 µM | TGI [7]: > 100 µM | TGI [8]: > 100 µM | TGI [9]: > 100 µM | TGI [10]: > 100 µM | TGI [11]: > 100 µM | TGI [12]: > 100 µM | TGI [13]: > 100 µM | TGI [14]: 0.028 µM | TGI [15]: > 100 µM | TGI [16]: > 100 µM | TGI [17]: > 100 µM | TGI [18]: > 100 µM | TGI [19]: > 100 µM | TGI [20]: > 100 µM | TGI [21]: > 100 µM | TGI [22]: > 100 µM | TGI [23]: > 100 µM | TGI [24]: > 100 µM | TGI [25]: 0.0354 µM | TGI [26]: > 100 µM | TGI [27]: > 100 µM | TGI [28]: > 100 µM | TGI [29]: > 100 µM | TGI [30]: > 100 µM | TGI [31]: > 100 µM | TGI [32]: > 100 µM | TGI [33]: > 100 µM | TGI [34]: > 100 µM | TGI [35]: > 100 µM | TGI [36]: > 100 µM | TGI [37]: > 100 µM | TGI [38]: > 100 µM | TGI [39]: > 100 µM | TGI [40]: > 100 µM | TGI [41]: > 100 µM | TGI [42]: > 100 µM | TGI [43]: > 100 µM | TGI [44]: > 100 µM | TGI [45]: > 100 µM | TGI [46]: > 100 µM | TGI [47]: > 100 µM | TGI [48]: > 100 µM | TGI [49]: > 100 µM | TGI [50]: > 100 µM | TGI [51]: > 100 µM | TGI [52]: > 100 µM | TGI [53]: > 100 µM | TGI [54]: > 100 µM

COc1cc2c3c4[n+](cc2c(OC)c1OC)CCC4CCC3 (configuration not stated)
TGI [1]: > 100 µM | TGI [2]: > 100 µM | TGI [3]: > 100 µM | TGI [4]: > 100 µM | TGI [5]: > 100 µM | TGI [6]: > 100 µM | TGI [7]: > 100 µM | TGI [8]: > 84.7 µM | TGI [9]: > 100 µM | TGI [10]: > 100 µM | TGI [55]: > 100 µM | TGI [11]: > 100 µM | TGI [12]: > 100 µM | TGI [13]: > 100 µM | TGI [14]: > 100 µM | TGI [15]: > 100 µM | TGI [16]: > 100 µM | TGI [17]: > 100 µM | TGI [18]: > 100 µM | TGI [19]: 99.5 µM | TGI [20]: > 100 µM | TGI [21]: > 100 µM | TGI [22]: > 65.8 µM | TGI [23]: > 100 µM | TGI [24]: > 100 µM | TGI [25]: > 100 µM | TGI [26]: > 100 µM | TGI [27]: > 100 µM | TGI [28]: > 100 µM | TGI [29]: > 100 µM | TGI [56]: > 100 µM | TGI [30]: > 100 µM | TGI [31]: > 100 µM | TGI [32]: > 100 µM | TGI [33]: > 100 µM | TGI [34]: > 100 µM | TGI [35]: > 100 µM | TGI [36]: > 100 µM | TGI [37]: > 100 µM | TGI [57]: > 100 µM | TGI [38]: > 100 µM | TGI [39]: > 100 µM | TGI [40]: > 100 µM | TGI [41]: > 100 µM | TGI [42]: > 100 µM | TGI [43]: > 53.3 µM | TGI [44]: > 100 µM | TGI [45]: > 100 µM | TGI [46]: > 100 µM | TGI [58]: > 100 µM | TGI [48]: > 100 µM | TGI [49]: > 100 µM | TGI [50]: > 100 µM | TGI [51]: > 100 µM | TGI [52]: > 100 µM | TGI [53]: > 100 µM | TGI [54]: > 100 µM

COc1ccc(C(OCC2OC(n3ccc(Oc4c(F)c(F)c(F)c(F)c4F)nc3=O)CC2OP(OCCC#N)N(C(C)C)C(C)C)(c2ccccc2)c2ccc(OC)cc2)cc1 (configuration not stated)
TGI [1]: > 100 µM | TGI [2]: > 100 µM | TGI [3]: > 100 µM | TGI [4]: > 100 µM | TGI [5]: > 100 µM | TGI [6]: > 100 µM | TGI [7]: > 100 µM | TGI [8]: > 100 µM | TGI [9]: > 100 µM | TGI [55]: > 100 µM | TGI [11]: > 100 µM | TGI [12]: > 100 µM | TGI [59]: > 100 µM | TGI [13]: > 100 µM | TGI [14]: > 100 µM | TGI [15]: > 100 µM | TGI [16]: > 100 µM | TGI [17]: > 100 µM | TGI [18]: > 100 µM | TGI [19]: > 100 µM | TGI [20]: > 100 µM | TGI [21]: > 100 µM | TGI [23]: > 100 µM | TGI [24]: > 100 µM | TGI [25]: > 100 µM | TGI [26]: > 100 µM | TGI [27]: > 100 µM | TGI [28]: > 100 µM | TGI [29]: > 100 µM | TGI [56]: > 100 µM | TGI [30]: > 100 µM | TGI [31]: > 100 µM | TGI [32]: > 100 µM | TGI [34]: > 100 µM | TGI [35]: > 100 µM | TGI [36]: > 100 µM | TGI [37]: > 100 µM | TGI [57]: > 100 µM | TGI [38]: > 100 µM | TGI [39]: > 100 µM | TGI [40]: > 100 µM | TGI [41]: > 100 µM | TGI [42]: > 100 µM | TGI [43]: > 100 µM | TGI [44]: > 100 µM | TGI [45]: > 100 µM | TGI [46]: > 100 µM | TGI [47]: > 100 µM | TGI [58]: > 100 µM | TGI [48]: > 100 µM | TGI [49]: > 100 µM | TGI [50]: > 100 µM | TGI [51]: > 100 µM | TGI [52]: > 100 µM | TGI [53]: > 100 µM | TGI [54]: > 100 µM
